In ChEMBL document CHEMBL3885861, “Open TG-GATES”:

Species: Rattus norvegicus
Assay: Open TG-GATES - Regimen: Single
Assay type: toxicity, organism-based, Sprague-Dawley
Design: regimen Single, gender Male, age 6 weeks
Settings: in vivo, po, route gavage; for APTT / Bas / Eos / Fbg / Hb / Ht / Lym / MCH / MCHC / MCV / Mono / Neu / PT / Plat / RBC / Ret / WBC: tissue Blood; for KIDNEY_L / KIDNEY_R / KIDNEY_TOTAL: tissue Kidney; for LIVER: tissue Liver; for A/G / ALP / ALT / AST / BUN / CRE / Ca / Cl / DBIL / GLC / IP / K / LDH / Na / PL / RALB / TBIL / TC / TG / TP / gamma-GTP: tissue Plasma
[1] = 300 mg/kg, 3 h, dose level Middle
[2] = 300 mg/kg, 6 h, dose level Middle
[3] = 300 mg/kg, 9 h, dose level Middle
[4] = 300 mg/kg, 24 h, dose level Middle
[5] = 1000 mg/kg, 3 h, dose level High
[6] = 1000 mg/kg, 6 h, dose level High
[7] = 1000 mg/kg, 9 h, dose level High
[8] = 1000 mg/kg, 24 h, dose level High

CC[C@@H](CO)NCCN[C@@H](CC)CO [ETHAMBUTOL]
TERMINAL_BW [1]: 232.2 g
APTT [1]: 22.9 s
Bas [1]: 0%
Eos [1]: 0.6%
Fbg [1]: 301.8 mg/dL
Hb [1]: 13.7 g/dL
Ht [1]: 40.8%
Lym [1]: 78%
MCH [1]: 22 pg
MCHC [1]: 33.6%
MCV [1]: 65.5 fL
Mono [1]: 2.8%
Neu [1]: 18.2%
PT [1]: 15.5 s
Plat [1]: 120.7 x10_4/uL
RBC [1]: 623.8 x10_4/ul
Ret [1]: 8.5%
WBC [1]: 63.4 x10_2/uL
KIDNEY_L [1]: 1 g
KIDNEY_R [1]: 1 g
KIDNEY_TOTAL [1]: 2 g
LIVER [1]: 10.9 g
A/G [1]: 1.3
ALP [1]: 1703.4 IU/L
ALT [1]: 42.6 IU/L
AST [1]: 68.2 IU/L
BUN [1]: 12.2 mg/dL
CRE [1]: 0.1 mg/dL
Ca [1]: 10.3 mg/dL
Cl [1]: 106.8 meq/L
DBIL [1]: 0.002 mg/dL
GLC [1]: 190 mg/dL
IP [1]: 8.9 mg/dL
K [1]: 3.8 meq/L
LDH [1]: 187.2 IU/L
Na [1]: 141 meq/L
PL [1]: 137.4 mg/dL
RALB [1]: 3 g/dL
TBIL [1]: 0.02 mg/dL
TC [1]: 78.2 mg/dL
TG [1]: 54.2 mg/dL
TP [1]: 5.4 g/dL
gamma-GTP [1]: 1.6 IU/L
TERMINAL_BW [2]: 224.6 g
APTT [2]: 22.5 s
Bas [2]: 0%
Eos [2]: 1.2%
Fbg [2]: 321.2 mg/dL
Hb [2]: 14 g/dL
Ht [2]: 41%
Lym [2]: 75%
MCH [2]: 21.5 pg
MCHC [2]: 34.1%
MCV [2]: 63.1 fL
Mono [2]: 2.2%
Neu [2]: 20.6%
PT [2]: 15.6 s
Plat [2]: 124.9 x10_4/uL
RBC [2]: 649.8 x10_4/ul
Ret [2]: 7.7%
WBC [2]: 89.1 x10_2/uL
KIDNEY_L [2]: 1 g
KIDNEY_R [2]: 1 g
KIDNEY_TOTAL [2]: 2 g
LIVER [2]: 9.9 g
A/G [2]: 1.1
ALP [2]: 1416.2 IU/L
ALT [2]: 39.4 IU/L
AST [2]: 68.6 IU/L
BUN [2]: 10 mg/dL
CRE [2]: 0.1 mg/dL
Ca [2]: 10.2 mg/dL
Cl [2]: 106 meq/L
DBIL [2]: 0.002 mg/dL
GLC [2]: 183.6 mg/dL
IP [2]: 9.1 mg/dL
K [2]: 4.1 meq/L
LDH [2]: 169 IU/L
Na [2]: 141 meq/L
PL [2]: 139.8 mg/dL
RALB [2]: 2.9 g/dL
TBIL [2]: 0.022 mg/dL
TC [2]: 74.6 mg/dL
TG [2]: 76.6 mg/dL
TP [2]: 5.5 g/dL
gamma-GTP [2]: 1.8 IU/L
TERMINAL_BW [3]: 217.6 g
APTT [3]: 23 s
Bas [3]: 0%
Eos [3]: 0.6%
Fbg [3]: 334 mg/dL
Hb [3]: 13.6 g/dL
Ht [3]: 40.2%
Lym [3]: 74.4%
MCH [3]: 21.4 pg
MCHC [3]: 33.7%
MCV [3]: 63.5 fL
Mono [3]: 1.8%
Neu [3]: 22.2%
PT [3]: 16.1 s
Plat [3]: 122 x10_4/uL
RBC [3]: 633.4 x10_4/ul
Ret [3]: 7.8%
WBC [3]: 74.5 x10_2/uL
KIDNEY_L [3]: 1 g
KIDNEY_R [3]: 1 g
KIDNEY_TOTAL [3]: 2.1 g
LIVER [3]: 9.7 g
A/G [3]: 1.2
ALP [3]: 1255.8 IU/L
ALT [3]: 37 IU/L
AST [3]: 68.2 IU/L
BUN [3]: 9.6 mg/dL
CRE [3]: 0.1 mg/dL
Ca [3]: 10.4 mg/dL
Cl [3]: 107 meq/L
DBIL [3]: 0 mg/dL
GLC [3]: 176.8 mg/dL
IP [3]: 9.4 mg/dL
K [3]: 3.9 meq/L
LDH [3]: 139.4 IU/L
Na [3]: 141.6 meq/L
PL [3]: 136.8 mg/dL
RALB [3]: 3 g/dL
TBIL [3]: 0.036 mg/dL
TC [3]: 78.6 mg/dL
TG [3]: 53.4 mg/dL
TP [3]: 5.6 g/dL
gamma-GTP [3]: 1.8 IU/L
TERMINAL_BW [4]: 235.9 g
APTT [4]: 22 s
Bas [4]: 0%
Eos [4]: 1%
Fbg [4]: 339.2 mg/dL
Hb [4]: 13.7 g/dL
Ht [4]: 39.7%
Lym [4]: 81.6%
MCH [4]: 22 pg
MCHC [4]: 34.6%
MCV [4]: 63.5 fL
Mono [4]: 3%
Neu [4]: 13.2%
PT [4]: 15.9 s
Plat [4]: 117.6 x10_4/uL
RBC [4]: 625.8 x10_4/ul
Ret [4]: 7.3%
WBC [4]: 107.5 x10_2/uL
KIDNEY_L [4]: 1.1 g
KIDNEY_R [4]: 1.1 g
KIDNEY_TOTAL [4]: 2.2 g
LIVER [4]: 12.3 g
A/G [4]: 1.2
ALP [4]: 1520.4 IU/L
ALT [4]: 46 IU/L
AST [4]: 69.4 IU/L
BUN [4]: 14.6 mg/dL
CRE [4]: 0.1 mg/dL
Ca [4]: 10.5 mg/dL
Cl [4]: 105.2 meq/L
DBIL [4]: 0 mg/dL
GLC [4]: 187.4 mg/dL
IP [4]: 8.5 mg/dL
K [4]: 3.9 meq/L
LDH [4]: 145.8 IU/L
Na [4]: 141 meq/L
PL [4]: 155.6 mg/dL
RALB [4]: 3.1 g/dL
TBIL [4]: 0.014 mg/dL
TC [4]: 82.4 mg/dL
TG [4]: 89.4 mg/dL
TP [4]: 5.7 g/dL
gamma-GTP [4]: 2 IU/L
TERMINAL_BW [5]: 224.6 g
APTT [5]: 23.9 s
Bas [5]: 0%
Eos [5]: 0.8%
Fbg [5]: 301.6 mg/dL
Hb [5]: 13.7 g/dL
Ht [5]: 40.3%
Lym [5]: 81.2%
MCH [5]: 21.3 pg
MCHC [5]: 33.9%
MCV [5]: 62.7 fL
Mono [5]: 2.2%
Neu [5]: 15.4%
PT [5]: 15.7 s
Plat [5]: 126.2 x10_4/uL
RBC [5]: 643.4 x10_4/ul
Ret [5]: 7.5%
WBC [5]: 67.7 x10_2/uL
KIDNEY_L [5]: 1 g
KIDNEY_R [5]: 1 g
KIDNEY_TOTAL [5]: 2.1 g
LIVER [5]: 9.9 g
A/G [5]: 1.2
ALP [5]: 1529.4 IU/L
ALT [5]: 41.8 IU/L
AST [5]: 74.8 IU/L
BUN [5]: 10.4 mg/dL
CRE [5]: 0.1 mg/dL
Ca [5]: 10.1 mg/dL
Cl [5]: 106.8 meq/L
DBIL [5]: 0 mg/dL
GLC [5]: 173.8 mg/dL
IP [5]: 8.7 mg/dL
K [5]: 3.9 meq/L
LDH [5]: 175.6 IU/L
Na [5]: 141.6 meq/L
PL [5]: 139 mg/dL
RALB [5]: 3 g/dL
TBIL [5]: 0.018 mg/dL
TC [5]: 83.8 mg/dL
TG [5]: 35.6 mg/dL
TP [5]: 5.4 g/dL
gamma-GTP [5]: 1.8 IU/L
TERMINAL_BW [6]: 222.4 g
APTT [6]: 22.3 s
Bas [6]: 0%
Eos [6]: 1%
Fbg [6]: 308.6 mg/dL
Hb [6]: 13.7 g/dL
Ht [6]: 40.2%
Lym [6]: 77.4%
MCH [6]: 21.1 pg
MCHC [6]: 34.1%
MCV [6]: 61.9 fL
Mono [6]: 2.8%
Neu [6]: 18%
PT [6]: 15.9 s
Plat [6]: 123.5 x10_4/uL
RBC [6]: 650.6 x10_4/ul
Ret [6]: 7.1%
WBC [6]: 70.3 x10_2/uL
KIDNEY_L [6]: 1 g
KIDNEY_R [6]: 1 g
KIDNEY_TOTAL [6]: 2 g
LIVER [6]: 9.5 g
A/G [6]: 1.2
ALP [6]: 1436.4 IU/L
ALT [6]: 35.6 IU/L
AST [6]: 67.4 IU/L
BUN [6]: 9.8 mg/dL
CRE [6]: 0.1 mg/dL
Ca [6]: 10 mg/dL
Cl [6]: 108 meq/L
DBIL [6]: 0.002 mg/dL
GLC [6]: 186.4 mg/dL
IP [6]: 9.4 mg/dL
K [6]: 4.1 meq/L
LDH [6]: 176.4 IU/L
Na [6]: 141.4 meq/L
PL [6]: 134 mg/dL
RALB [6]: 3 g/dL
TBIL [6]: 0.03 mg/dL
TC [6]: 75.4 mg/dL
TG [6]: 43.2 mg/dL
TP [6]: 5.5 g/dL
gamma-GTP [6]: 1.4 IU/L
TERMINAL_BW [7]: 217 g
APTT [7]: 22.3 s
Bas [7]: 0%
Eos [7]: 0.2%
Fbg [7]: 312 mg/dL
Hb [7]: 13.9 g/dL
Ht [7]: 40.3%
Lym [7]: 79.2%
MCH [7]: 22 pg
MCHC [7]: 34.4%
MCV [7]: 64.1 fL
Mono [7]: 1.4%
Neu [7]: 17.8%
PT [7]: 16.3 s
Plat [7]: 116.9 x10_4/uL
RBC [7]: 630 x10_4/ul
Ret [7]: 7.6%
WBC [7]: 68.6 x10_2/uL
KIDNEY_L [7]: 1 g
KIDNEY_R [7]: 1 g
KIDNEY_TOTAL [7]: 1.9 g
LIVER [7]: 8.7 g
A/G [7]: 1.1
ALP [7]: 1464.4 IU/L
ALT [7]: 35.8 IU/L
AST [7]: 68.2 IU/L
BUN [7]: 11.4 mg/dL
CRE [7]: 0.1 mg/dL
Ca [7]: 9.9 mg/dL
Cl [7]: 108.2 meq/L
DBIL [7]: 0.002 mg/dL
GLC [7]: 177.8 mg/dL
IP [7]: 8.8 mg/dL
K [7]: 3.9 meq/L
LDH [7]: 143 IU/L
Na [7]: 140 meq/L
PL [7]: 121 mg/dL
RALB [7]: 3 g/dL
TBIL [7]: 0.022 mg/dL
TC [7]: 63.8 mg/dL
TG [7]: 44.6 mg/dL
TP [7]: 5.6 g/dL
gamma-GTP [7]: 1.6 IU/L
TERMINAL_BW [8]: 227.8 g
APTT [8]: 22.5 s
Bas [8]: 0%
Eos [8]: 1%
Fbg [8]: 306.4 mg/dL
Hb [8]: 13.4 g/dL
Ht [8]: 39.2%
Lym [8]: 76%
MCH [8]: 21.5 pg
MCHC [8]: 34.3%
MCV [8]: 62.9 fL
Mono [8]: 3%
Neu [8]: 18.6%
PT [8]: 16.7 s
Plat [8]: 118 x10_4/uL
RBC [8]: 623.4 x10_4/ul
Ret [8]: 6.9%
WBC [8]: 94.9 x10_2/uL
KIDNEY_L [8]: 1 g
KIDNEY_R [8]: 1.1 g
KIDNEY_TOTAL [8]: 2.1 g
LIVER [8]: 10.5 g
A/G [8]: 1.2
ALP [8]: 1508.4 IU/L
ALT [8]: 46.8 IU/L
AST [8]: 74 IU/L
BUN [8]: 13.4 mg/dL
CRE [8]: 0.1 mg/dL
Ca [8]: 10.5 mg/dL
Cl [8]: 105 meq/L
DBIL [8]: 0.002 mg/dL
GLC [8]: 183.8 mg/dL
IP [8]: 8.3 mg/dL
K [8]: 3.9 meq/L
LDH [8]: 158 IU/L
Na [8]: 139.4 meq/L
PL [8]: 135.4 mg/dL
RALB [8]: 3 g/dL
TBIL [8]: 0.022 mg/dL
TC [8]: 74.6 mg/dL
TG [8]: 53.2 mg/dL
TP [8]: 5.5 g/dL
gamma-GTP [8]: 2 IU/L
